Source: PMC5938026 (Experimental & Molecular Medicine, 2018)

target: Kv1.5 (Rattus norvegicus, UniProt P19024); assay: whole-cell patch clamp of CHO cells overexpressing Kv1.[…]; type: cell-based
Sequence (P19024 whole entry): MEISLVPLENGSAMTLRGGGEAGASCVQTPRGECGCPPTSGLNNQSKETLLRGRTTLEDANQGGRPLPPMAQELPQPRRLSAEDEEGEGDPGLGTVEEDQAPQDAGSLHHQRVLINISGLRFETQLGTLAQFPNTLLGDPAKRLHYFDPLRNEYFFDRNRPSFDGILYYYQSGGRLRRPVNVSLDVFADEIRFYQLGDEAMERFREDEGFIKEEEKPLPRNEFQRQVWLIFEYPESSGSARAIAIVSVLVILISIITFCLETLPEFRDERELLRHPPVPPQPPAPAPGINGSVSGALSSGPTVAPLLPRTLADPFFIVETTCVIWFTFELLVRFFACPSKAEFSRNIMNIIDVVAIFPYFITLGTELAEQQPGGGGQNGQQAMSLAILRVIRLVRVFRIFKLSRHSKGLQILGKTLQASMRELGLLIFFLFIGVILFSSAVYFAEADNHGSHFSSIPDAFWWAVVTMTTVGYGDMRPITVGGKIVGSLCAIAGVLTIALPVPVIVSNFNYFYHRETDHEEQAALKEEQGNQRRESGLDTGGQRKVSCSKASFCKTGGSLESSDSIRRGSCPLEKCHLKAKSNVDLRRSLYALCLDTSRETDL

Row | Structure (SMILES) | IC50
1 | C[C@@]12N[C@@H](Cc3ccccc31)c1ccccc12 [(−) MK801] | 157 ± 7.9 µM
2 | C[C@]12N[C@H](Cc3ccccc31)c1ccccc12 [(+) MK801] | 157 ± 14 µM
3 | CNC1(c2ccccc2Cl)CCCCC1=O (racemic) [ketamine] | 641 ± 33.2 µM
